Source: patent US20260207569A1, “LPA1 ANTAGONISTS FOR TREATING INTERSTITIAL LUNG DISEASE” (Bristol-Myers Squibb Company, priority 2022, published 2026)
“Also recorded” adds a separate entry of the source.

Key:
Format in all cases: in vivo, human
[1] = Phase 1 Part A single ascending dose (SAD) and food effect/pH cohort, blood pressure and safety, healthy participants; conditions: for Time of maximum mean DBP reduction / Time of maximum mean SBP reduction: within 12 h post dose
Protocol: (§1) The study was performed in 3 parts in 112 healthy male and female participants, including 24 Japanese participants. Female participants were to be not of childbearing potential. The present study was designed to evaluate the safety and tolerability, PK, and exploratory PD of an oral suspension of Compound A. Parts A and B (Cohort B1 only) enrolled healthy participants and was conducted at a site in The Netherlands and Part B (Cohort B2 to B5) enrolled healthy non-Japanese participants and was conducted at a site in the United Kingdom (UK). Part C enrolled healthy Japanese participants and was conducted at the same site in the UK.
Part A was an SAD study in a planned number of 6 sequential dose escalation cohorts (3, 10, 30, 100, 150, or 250 mg) of 8 healthy participants (6 active+2 placebo) each, under fasted conditions. Eligible participants in Part A (excluding those in Cohort A7 [food effect (FE)/pH cohort]) received a single administration of study drug (Compound A or placebo) under fasted conditions. In Cohort A1 to Cohort A6, sentinel dosing was employed (1 active+1 placebo, followed after 48 hours by the remaining participants of the cohort [5 active+1 placebo]). […] In addition to the 6 ascending dose cohorts, a cohort of 6 healthy participants (Cohort A7; 6 active, 100 mg Compound A) was included to assess the effect of food and pH on the bioavailability of Compound A in a 3-period, open-label, fixed-sequence, crossover design (FE/pH cohort).
(§2) Physical examinations, vital sign measurements (including orthostasis testing in Cohort A6, Cohort B3 to B5, and C1 to C3 at selected time points), 12-lead electrocardiogram (ECG), and clinical laboratory evaluations were performed at selected times throughout the study. In addition, Holter monitoring was performed for the first 24 hours post dose on Day 1 in Part A (not in FE/pH cohort), and also for the first 24 hours post dose on Day 1 and Day 14 in Parts B and C. Participants were closely monitored for adverse events (AEs). Blood samples were collected for up to 14 days (follow-up visit) after (last) study drug administration for PK analysis. In addition, blood and urine were collected for exploratory biomarker assessments and for biobanking of samples for potential analyses. Urine was collected for potential PK analysis for up to 96 hours after a single dose of Compound A or placebo was administered in the SAD part, and for up to 24 hours after the first (morning) dose of study drug on Day 1 and for up to 24 hours after the last (morning) dose of study drug on Day 14 in the MAD parts.

[2] = Phase 1 Part B multiple ascending dose (MAD), blood pressure, healthy participants
Protocol: as §1
Part B was a MAD study in a planned number of 6 sequential dose escalation cohorts (10 mg QD, 30 mg QD, 30 mg BID, 60 mg BID, 125 mg BID, and ≤250 mg BID) of 8 healthy participants (6 active+2 placebo) each, under fasted conditions. However, Cohort B6 (≤250 mg BID) was cancelled because sufficient safety and PK data had been obtained at doses up to 125 mg BID. Eligible participants received study drug (Compound A or placebo) administered orally for 14 days.
as §2

[3] = Phase 2 IPF cohort safety: adverse events, low blood pressure criteria, dose reductions
Protocol: A total of 278 participants with IPF were randomized and 276 participants were treated as of […] analyses data cut-off (4 Aug. 2022). Male and female participants ≥40 years of age with IPF and percent predicted forced vital capacity (ppFVC) ≥40% and percent predicted DLCO (ppDLCO) ≥25%; diagnosed within 7 years of screening; having a centrally-read chest HRCT obtained at screening that was consistent with UIP or probable UIP, or having a lung biopsy consistent with UIP, were eligible to enter the study. The mean baseline ppFVC for all subjects was 76.5%. In the primary IPF cohort, participants were randomized (1:1:1) to receive 30 mg or 60 mg Compound A or placebo (PBO) twice daily for 26 weeks. Participants were stratified by standard of care (SoC) IPF therapy (pirfenidone versus nintedanib versus none) and region (Japan versus Rest of World) at randomization.
Patient experiences any of the following, confirmed by retest within 15 minutes: • Seated systolic blood pressure <85 mmHg • Seated diastolic blood pressure <55 mmHg • Orthostatic hypotension
Patient experiences symptoms that, in the investigator's opinion, could be associated with a reduction in blood pressure and also experiences at least one of the following, confirmed by retest within 15 minutes: • Seated systolic blood pressure <100 mmHg or seated diastolic blood pressure <60 mmHg • Decrease of seated systolic blood pressure of ≥20 mmHg from the previous visit or decrease of seated diastolic blood pressure of ≥10 mmHg from the previous visit • Orthostatic hypotension • Orthostatic tachycardia

[4] = 100 mg fasted + famotidine (A7)
[5] = Active Total (30 mg and 60 mg groups)

Compound: CCCN(C)C(=O)OCc1c(-c2ccc(O[C@H]3CCC[C@H](C(=O)O)C3)c(C)n2)nnn1C [Compound A, (1S,3S)-3-((2-methyl-6-(1-methyl-5-(((methyl(propyl)carbamoyl)-oxy)methyl)-1H-1,2,3-triazol-4-yl)pyridin-3-yl)oxy)cyclohexane-1-carboxylic acid]
- Time of maximum mean DBP reduction ([1]; 100 mg fasted (A7)): 5 h
- Time of maximum mean SBP reduction ([1]; 100 mg fasted (A7)): 8 h
- Time of maximum mean DBP reduction [1, 4]: 6 h
- Time of maximum mean SBP reduction [1, 4]: 6 h
- Time of maximum mean DBP reduction ([1]; 100 mg fed (A7)): 5 h
- Time of maximum mean SBP reduction ([1]; 100 mg fed (A7)): 6 h
- Time of maximum mean DBP reduction ([1]; SAD 10 mg (A2)): 6 h
- Time of maximum mean SBP reduction ([1]; SAD 10 mg (A2)): 8 h
- Time of maximum mean DBP reduction ([1]; SAD 30 mg (A3)): 5 h
- Time of maximum mean SBP reduction ([1]; SAD 30 mg (A3)): 4 h
- Time of maximum mean DBP reduction ([1]; SAD 100 mg (A4)): 5 h
- Time of maximum mean SBP reduction ([1]; SAD 100 mg (A4)): 2 h
- Time of maximum mean DBP reduction ([1]; SAD 150 mg (A5)): 6 h
- Time of maximum mean SBP reduction ([1]; SAD 150 mg (A5)): 6 h
- Effect on SBP and DBP ([1]; SAD cohorts): decreased SBP and DBP dose dependently, reversibly, and mostly asymptomatically with minimal effect on heart rate
- Safety and tolerability ([1]; single and multiple dose oral administration, healthy participants): generally safe and well tolerated
- Time after dosing of maximum BP reduction ([1]; single and multiple dose, healthy participants): 4 to 8 h
- Mean DBP ([2]; MAD 60 mg BID, D 14 320 h): 63 mmHg
- Mean DBP ([2]; MAD 125 mg BID, D 15 336 h): 63 mmHg
- Reductions in BP vs placebo ([2]; MAD BID groups): no clear differences between placebo and the Compound A groups
- Reductions in mean SBP and DBP ([2]; MAD QD groups): reductions generally occurred in a Compound A dose-dependent manner
- Dose reductions to 10 mg BID due to protocol-defined low BP criteria, % ([3]; 30 mg BID): 7.7%
- Dose reductions to 10 mg BID due to protocol-defined low BP criteria, % ([3]; 60 mg BID): 6.5%
- Risk of orthostatic intolerance, orthostatic hypotension or low BP criteria vs PBO ([3]; 60 mg BID): lowest frequencies of orthostatic intolerance, orthostatic hypotension, or pre-specified symptomatic or asymptomatic low BP criteria; also recorded: not associated with any increased risk of orthostatic intolerance, orthostatic hypotension, orthostatic tachycardia, or symptomatic or asymptomatic low BP
- Subjects discontinuing study treatment due to a TEAE, % [3, 5]: (8.2) %
- Subjects who died due to a TEAE, % [3, 5]: (3.8) %
- Subjects who died, % [3, 5]: (4.9) %
- Subjects with at least one AESI, % [3, 5]: (14.7) %
- Subjects with at least one TEAE related to the study treatment, % [3, 5]: (26.1) %
- Subjects with at least one TEAE, % [3, 5]: (75.0) %
- Subjects with at least one TESAE, % [3, 5]: (10.9) %
